Laboratory results from PMC9964651, “Discovery of Ureido-Based Apcin Analogues as Cdc20-specific Inhibitors against Cancer” (Pharmaceuticals, 2023).
Structures can show the parent of a compound that is named as a salt.

Tests used:
Assay in all cases: In vitro antiproliferative assay (CCK-8)
[1] = test system: Hepg2; settings: Homo sapiens, HepG2, 48 h, read-out: IC50 ± SD Hepg2
Description: (§1) Hela and MDA-MB-132 cells were grown in DMEM (Gibco) containing 10% FBS and 1% double antibody (penicillin 100 U/mL, streptomycin 100 μg/mL, Solarbio). […] All cell lines were purchased from the Xiangya Cell Bank, Central South University, Changsha, China, and incubated at 37 °C with 5% CO2 in a humidified atmosphere. […] Cytotoxicity assay was assessed using CCK-8 methods. The cells were seeded in a 96-well plate (2 × 10^3–3 × 10^3 cells/well), the 96-well plate was incubated at 37 °C with 5% CO2 in a humidified atmosphere, and the cells were grown in a monolayer; the original culture was discarded. A total of 100 μL of drug-containing medium with a specific concentration gradient was added and then cultivated for 48 h; 10 μL/well of CCK-8 solution was added, put in an incubator, and incubated for 1 h and read with a multi-function microplate reader at a wavelength of 450 nm. The inhibition rate was calculated, and the IC50 results were calculated by GraphPad Prism 7 software. The experiment was repeated three times.

[2] = test system: Mcf-7; settings: Homo sapiens, MCF7, 48 h, read-out: IC50 ± SD Mcf-7
Description: as §1

[3] = test system: Hela; format: cell-based, human; settings: Homo sapiens, HeLa; CCK-8, 48 h, mean ± SD
Source text: The experiment was repeated three times.

[4] = test system: Mda-mb-231; settings: Homo sapiens, MDA-MB-231, 48 h, read-out: IC50 ± SD Mda-mb-231
Description: as §1

Structure (SMILES) | IC50 [1] | IC50 [2] | IC50 [3] | IC50 [4]
CCCNC(=O)NC(Nc1ncc([N+](=O)[O-])cn1)C(Cl)(Cl)Cl (centres unmarked) [Compound 13, 1-propyl-3-(2,2,2-trichloro-1-((5-nitropyrimidin-2-yl)amino)ethyl)urea] | > 100 µM | > 100 µM | > 100 µM | > 100 µM
O=C(NCCc1ccccc1)NC(Nc1ncc([N+](=O)[O-])cn1)C(Cl)(Cl)Cl (centres unmarked) [Compound 14, 1-phenethyl-3-(2,2,2-trichloro-1-((5-nitropyrimidin-2-yl)amin-o)ethyl)urea] | 51.8 ± 2.43 µM | 44.7 ± 7.62 µM | 79.6 ± 45.2 µM | > 100 µM
N#Cc1cnc(NC(NC(=O)NCCc2ccccc2)C(Cl)(Cl)Cl)nc1 (centres unmarked) [Compound 15, 1-phenethyl-3-(2,2,2-trichloro-1-((5-cyanopyrimidin-2-yl)amin-o)ethyl)urea] | > 100 µM | > 100 µM | > 100 µM | > 100 µM
O=C(NCCc1ccccc1)NC(Nc1ncc(F)cn1)C(Cl)(Cl)Cl (centres unmarked) [Compound 16, 1-phenethyl-3-(2,2,2-trichloro-1-((5-fluoropyrimidin-2-yl)amin-no)ethyl)urea] | > 100 µM | > 100 µM | > 100 µM | > 100 µM
O=C(NCCc1ccccc1)NC(Nc1nc(Cl)cc(Cl)n1)C(Cl)(Cl)Cl (centres unmarked) [Compound 18, 1-phenethyl-3-(2,2,2-trichloro-1-((4,6-dichloropyrimidin-2-yl)amino)ethyl)urea, sodium salt] | 30.59 ± 0.1 µM | 33.8 ± 1.91 µM | 36.7 ± 1.23 µM | 50.4 ± 3.07 µM
Nc1c(Cl)nc(NC(NC(=O)OCCc2ccccc2)C(Cl)(Cl)Cl)nc1Cl (centres unmarked) [Compound 19, Phenethyl(1-((5-amino-4,6-dichloropyrimidin-2-yl)amino)-2,2,2-trichloroethyl)carbamate] | 27.8 ± 1.85 µM | 23.5 ± 4.17 µM | 34.04 ± 0.02 µM | 68.9 ± 2.67 µM
Nc1c(Cl)nc(NC(NC(=O)NCCN2CCOCC2)C(Cl)(Cl)Cl)nc1Cl (centres unmarked) [Compound 21, 1-(1-((5-amino-4,6-dichloropyrimidin-2-yl)-l4-azanyl)-2,2,2-trichloroethyl)-3-(2-morpholinoethyl)urea] | > 100 µM | > 100 µM | > 100 µM | > 100 µM
Cc1cnc(NC(NC(=O)NCCc2ccccc2)C(Cl)(Cl)Cl)nc1 (centres unmarked) [Compound 23, 1-phenethyl-3-(2,2,2-trichloro-1-((5-methylpyrimidin-2-yl)ami-no)ethyl)urea] | 67.9 ± 6.74 µM | 60.4 ± 3.91 µM | > 100 µM | > 100 µM
COC(=O)c1cnc(NC(NC(=O)NCCc2ccccc2)C(Cl)(Cl)Cl)nc1C (centres unmarked) [Compound 24, Methyl-4-methyl-2-((2,2,2-trichloro-1-(3-phenethylureido)eth-yl)amino)pyrimidine-5-carboxylate] | 32.4 ± 5 µM | 29.2 ± 3.46 µM | > 100 µM | 58.6 ± 18.4 µM
Nc1nc(Cl)cc(NC(NC(=O)NCCc2ccccc2)C(Cl)(Cl)Cl)n1 (centres unmarked) [Compound 25, 1-(1-((2-amino-6-chloropyrimidin-4-yl)amino)-2,2,2-trichloroe-thyl)-3-phenethylurea] | 32.5 ± 6.31 µM | 37.3 ± 1.63 µM | 41.6 ± 8.81 µM | 52.2 ± 0.63 µM
Nc1cc(Cl)nc(NC(NC(=O)NCCc2ccccc2)C(Cl)(Cl)Cl)n1 (centres unmarked) [Compound 26, 1-(1-((4-amino-6-chloropyrimidin-2-yl)amino)-2,2,2-trichloroe-thyl)-3-phenethylurea] | 32.8 ± 3.94 µM | 44.8 ± 8.78 µM | 44.7 ± 4.6 µM | 61.6 ± 11.1 µM
Nc1nc(F)nc2c1ncn2C(NC(=O)NCCc1ccccc1)C(Cl)(Cl)Cl (centres unmarked) [Compound 28, 1-(1-(6-amino-2-fluoro-9H-purin-9-yl)-2,2,2-trichloroethyl)-3-phenethylurea] | 0.28 ± 0.13 µM | 0.41 ± 0.05 µM | 0.17 ± 0.08 µM | 0.61 ± 0.12 µM
Cc1ncc([N+](=O)[O-])n1CCNC(=O)NC(n1cnc2c(N)nc(F)nc21)C(Cl)(Cl)Cl (centres unmarked) [Compound 29, 1-(1-(6-amino-2-fluoro-9H-purin-9-yl)-2,2,2-trichloroethyl)-3-(2-(2-methyl-5-nitro-1H-imidazol-1-yl)ethyl)urea] | 0.13 ± 0.05 µM | 0.23 ± 0.09 µM | 0.08 ± 0.01 µM | 0.37 ± 0.07 µM
O=C(NCCc1ccccc1)NC(NNc1nccc(C(F)(F)F)n1)C(Cl)(Cl)Cl (centres unmarked) [Compound 30, 1-phenethyl-3-(2,2,2-trichloro-1-(2-(4-(trifluoromethyl)pyrimi-din-2-yl)hydrazinyl)ethyl)urea] | 58 ± 10.6 µM | 72.4 ± 30.9 µM | > 100 µM | 73 ± 42.7 µM
